Article PMC11396129, “Oxindole–benzothiazole hybrids as CDK2 inhibitors and anticancer agents: design, synthesis and biological evaluation” (BMC Chemistry, 2024)

Experiments:
LOX IMVI = test: NCI 60 panel growth inhibition (SRB), melanoma; assay type: cell-based, human; conditions: 10 μM
Method in brief: (§1)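 Seeding 5000–40,000 cells/well per doubling time; Tz plates TCA-fixed at 24 h. Five concentrations, 10-fold or ½ log steps, from DMSO concentrate at 400× top dose. Dose-response parameters incl. TGI; values beyond range given as > or < tested limits.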

SK-MEL-5 = test: NCI 60 panel growth inhibition (SRB), melanoma; assay type: cell-based, human; conditions: SK-MEL-5, 10 μM
Method in brief: as §1

UACC-62 = test: NCI 60 panel growth inhibition (SRB), melanoma; assay type: cell-based, human; conditions: UACC-62, 10 μM
Method in brief: as §1

M14 = test: NCI 60 panel growth inhibition (SRB), melanoma; assay type: cell-based, human; conditions: M14, 10 μM
Method in brief: as §1

UACC-257 = test: NCI 60 panel growth inhibition (SRB), melanoma; assay type: cell-based, human; conditions: UACC-257, 10 μM
Method in brief: as §1

SK-MEL-28 = test: NCI 60 panel growth inhibition (SRB), melanoma; assay type: cell-based, human; conditions: SK-MEL-28, 10 μM
Method in brief: as §1

MALME-3M = test: NCI 60 panel growth inhibition (SRB), melanoma; assay type: cell-based, human; conditions: 10 μM
Method in brief: as §1

EKVX = test: NCI 60 panel growth inhibition (SRB), non-small cell lung cancer; assay type: cell-based, human; conditions: 10 μM
Method in brief: as §1

NCI-H226 = test: as above; assay type: cell-based, human; conditions: NCI-H226, 10 μM
Method in brief: as §1

A549/ATCC = test: as above; assay type: cell-based, human; conditions: 10 μM
Method in brief: as §1

HOP-62 = test: as above; assay type: cell-based, human; conditions: HOP-62, 10 μM
Method in brief: as §1

NCI-H322M = test: as above; assay type: cell-based, human; conditions: 10 μM
Method in brief: as §1

NCI-H23 = test: as above; assay type: cell-based, human; conditions: NCI-H23, 10 μM
Method in brief: as §1

HOP-92 = test: as above; assay type: cell-based, human; conditions: HOP-92, 10 μM
Method in brief: as §1

NCI-H522 = test: as above; assay type: cell-based, human; conditions: NCI-H522, 10 μM
Method in brief: as §1

NCI-H460 = test: as above; assay type: cell-based, human; conditions: NCI-H460, 10 μM
Method in brief: as §1

SF-295 = test: NCI 60 panel growth inhibition (SRB), CNS cancer; assay type: cell-based, human; conditions: SF-295, 10 μM
Method in brief: as §1

SNB-75 = test: NCI 60 panel growth inhibition (SRB), CNS cancer; assay type: cell-based, human; conditions: SNB-75, 10 μM
Method in brief: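 Two-stage NCI process: single-dose screen, then five-concentration testing of selected compounds. Growth relative to time-zero and untreated controls was derived from SRB absorbance, and TGI from the concentration giving Ti = Tz.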

SF-539 = test: NCI 60 panel growth inhibition (SRB), CNS cancer; assay type: cell-based, human; conditions: SF-539, 10 μM
Method in brief: as §1

SF-268 = test: NCI 60 panel growth inhibition (SRB), CNS cancer; assay type: cell-based, human; conditions: SF-268, 10 μM
Method in brief: as §1

U251 = test: NCI 60 panel growth inhibition (SRB), CNS cancer; assay type: cell-based, human; conditions: U251, 10 μM
Method in brief: as §1

SNB-19 = test: NCI 60 panel growth inhibition (SRB), CNS cancer; assay type: cell-based, human; conditions: SNB-19, 10 μM
Method in brief: as §1

K-562 = test: NCI 60 panel growth inhibition (SRB), leukemia; assay type: cell-based, human; conditions: K-562, 10 μM
Method in brief: as §1

CCRF-CEM = test: NCI 60 panel growth inhibition (SRB), leukemia; assay type: cell-based, human; conditions: 10 μM
Method in brief: as §1

RPMI-8226 = test: NCI 60 panel growth inhibition (SRB), leukemia; assay type: cell-based, human; conditions: RPMI-8226, 10 μM
Method in brief: as §1

MOLT-4 = test: NCI 60 panel growth inhibition (SRB), leukemia; assay type: cell-based, human; conditions: MOLT-4, 10 μM
Method in brief: as §1

HL-60(TB) = test: NCI 60 panel growth inhibition (SRB), leukemia; assay type: cell-based, human; conditions: HL-60(TB), 10 μM
Method in brief: as §1

SR = test: NCI 60 panel growth inhibition (SRB), leukemia; assay type: cell-based, human; conditions: 10 μM
Method in brief: as §1

HCT-116 = test: NCI 60 panel growth inhibition (SRB), colon cancer; assay type: cell-based, human; conditions: HCT-116, 10 μM
Method in brief: as §1

HCC-2998 = test: NCI 60 panel growth inhibition (SRB), colon cancer; assay type: cell-based, human; conditions: HCC-2998, 10 μM
Method in brief: as §1

COLO 205 = test: NCI 60 panel growth inhibition (SRB), colon cancer; assay type: cell-based, human; conditions: COLO 205, 10 μM
Method in brief: as §1

HCT-15 = test: NCI 60 panel growth inhibition (SRB), colon cancer; assay type: cell-based, human; conditions: HCT-15, 10 μM
Method in brief: as §1

KM12 = test: NCI 60 panel growth inhibition (SRB), colon cancer; assay type: cell-based, human; conditions: KM12, 10 μM
Method in brief: as §1

SW-620 = test: NCI 60 panel growth inhibition (SRB), colon cancer; assay type: cell-based, human; conditions: SW-620, 10 μM
Method in brief: as §1

SMILES: COc1ccc2c(c1)C(=NNC(=O)COc1c(OC)cccc1-c1nc3ccccc3s1)C(=O)N2 [Compound 9i, 2-(2-(Benzo[d]thiazol-2-yl)-6-methoxyphenoxy)-N′-(5-methoxy-2-oxoindolin-3-ylidene)acetohydrazide]
- GI% (LOX IMVI): – (GI% < 5%)
- GI% (SK-MEL-5): 51.82%
- GI% (UACC-62): 25.33%
- GI% (M14): 7.92%
- GI% (UACC-257): – (GI% < 5%)
- GI% (SK-MEL-28): – (GI% < 5%)
- GI% (MALME-3M): 12.81%
- GI% (EKVX): 24.10%
- GI% (NCI-H226): 29.04%
- GI% (A549/ATCC): 18.26%
- GI% (HOP-62): – (GI% < 5%)
- GI% (NCI-H322M): 5.89%
- GI% (NCI-H23): 11.65%
- GI% (HOP-92): 31.66%
- GI% (NCI-H522): 7.04%
- GI% (NCI-H460): – (GI% < 5%)
- melting point: 144 to 146 °C
- GI% (SF-295): 13.86%
- GI% (SNB-75): – (GI% < 5%)
- GI% (SF-539): 6.47%
- GI% (SF-268): – (GI% < 5%)
- GI% (U251): – (GI% < 5%)
- GI% (SNB-19): 11.58%
- GI% (K-562): 21.95%
- GI% (CCRF-CEM): 44.24%
- GI% (RPMI-8226): 47.68%
- GI% (MOLT-4): 45.30%
- GI% (HL-60(TB)): – (GI% < 5%)
- GI% (SR): – (GI% < 5%)
- GI% (HCT-116): 17.55%
- GI% (HCC-2998): – (GI% < 5%)
- GI% (COLO 205): – (GI% < 5%)
- GI% (HCT-15): 9.87%
- GI% (KM12): 8.46%
- GI% (SW-620): – (GI% < 5%)

SMILES: COc1ccc2c(c1)C(=NNC(=O)COc1ccccc1-c1nc3ccccc3s1)C(=O)N2 [Compound 9c, 2-(2-(Benzo[d]thiazol-2-yl)phenoxy)-N′-(5-methoxy-2-oxoindolin-3-ylidene)acetohydrazide]
- GI% (LOX IMVI): 9.06%
- GI% (SK-MEL-5): 44.97%
- GI% (UACC-62): 28.02%
- GI% (M14): 5.86%
- GI% (UACC-257): – (GI% < 5%)
- GI% (SK-MEL-28): – (GI% < 5%)
- GI% (MALME-3M): 13.58%
- GI% (EKVX): 25.93%
- GI% (NCI-H226): 23.90%
- GI% (A549/ATCC): 25.86%
- GI% (HOP-62): – (GI% < 5%)
- GI% (NCI-H322M): – (GI% < 5%)
- GI% (NCI-H23): 17.94%
- GI% (HOP-92): – (GI% < 5%)
- GI% (NCI-H522): – (GI% < 5%)
- GI% (NCI-H460): 6.01%
- melting point: 240 to 242 °C
- GI% (SF-295): 20.67%
- GI% (SNB-75): – (GI% < 5%)
- GI% (SF-539): 5.44%
- GI% (SF-268): 13.85%
- GI% (U251): – (GI% < 5%)
- GI% (SNB-19): 7.69%
- GI% (K-562): 30.54%
- GI% (CCRF-CEM): 60.17%
- GI% (RPMI-8226): 48.87%
- GI% (MOLT-4): 47.19%
- GI% (HL-60(TB)): 15.59%
- GI% (SR): 20.98%
- GI% (HCT-116): 18.17%
- GI% (HCC-2998): – (GI% < 5%)
- GI% (COLO 205): – (GI% < 5%)
- GI% (HCT-15): 40.05%
- GI% (KM12): 15.67%
- GI% (SW-620): – (GI% < 5%)

SMILES: Cc1ccc2c(c1)C(=NNC(=O)COc1ccccc1-c1nc3ccccc3s1)C(=O)N2 [Compound 9b, 2-(2-(Benzo[d]thiazol-2-yl)phenoxy)-N′-(5-methyl-2-oxoindolin-3-ylidene)acetohydrazide]
- GI% (LOX IMVI): 84.01%
- GI% (SK-MEL-5): 62.70%
- GI% (UACC-62): 33.71%
- GI% (M14): 11.64%
- GI% (UACC-257): – (GI% < 5%)
- GI% (SK-MEL-28): – (GI% < 5%)
- GI% (MALME-3M): 57.82%
- GI% (EKVX): 24.46%
- GI% (NCI-H226): 105.34%
- GI% (A549/ATCC): 28.01%
- GI% (HOP-62): 51.18%
- GI% (NCI-H322M): 19.44%
- GI% (NCI-H23): 85.13%
- GI% (HOP-92): 35.86%
- GI% (NCI-H522): 37.21%
- GI% (NCI-H460): 34.24%
- melting point: 251 to 253 °C
- GI% (SF-295): 44.34%
- GI% (SNB-75): 54.28%
- GI% (SF-539): 76.88%
- GI% (SF-268): 43.82%
- GI% (U251): 56.51%
- GI% (SNB-19): 74.25%
- GI% (K-562): 20.57%
- GI% (CCRF-CEM): 23.64%
- GI% (RPMI-8226): 30.53%
- GI% (MOLT-4): 29.12%
- GI% (HL-60(TB)): 8.38%
- GI% (SR): 18.71%
- GI% (HCT-116): 53.56%
- GI% (HCC-2998): 19.53%
- GI% (COLO 205): – (GI% < 5%)
- GI% (HCT-15): 31.29%
- GI% (KM12): 18.69%
- GI% (SW-620): – (GI% < 5%)
